Molecular target: MTH1 (Homo sapiens, UniProt P36639)
Assay: MTH1 enzymatic assay and IC50 value determination (malachite green, 96- and 384-well format)
Format: biochemical
Conditions: hydrolysis of dGTP (100 μM), MTH1 6 nM, pyrophosphatase-coupled malachite green, 15 minutes at 22° C.
Protocol: MTH1 Enzymatic Assay and IC50 Value Determination
MTH1 catalyzes the hydrolysis of dGTP to dGMP and PPi. By coupling the reaction to pyrophosphatase added in excess PPi is converted to Pi that can be detected by using the malachite green assay reagent. Two different formats were used for IC50 determinations in the enzymatic assay, 96- and 384-well format. 96-Well Method:
Briefly, the compound to be analyzed is diluted in DMSO in a 1:3 dilution series generating 12 different compound concentrations giving a final DMSO concentration of 1% in the assay well. MTH1 diluted in assay buffer (100 mM Tris-acetate, 40 mM NaCl, 10 mM magnesium acetate, 1 mM DTT and 0.005% Tween 20) fortified with E. coli pyrophosphatase (0.2 U/ml) is added to a final concentration of 6 nM. dGTP diluted in assay buffer is added to a final concentration of 100 μM. The reaction mixture is incubated for 15 minutes at 22° C. To 100 μl reaction mixture, 25 μl Malachite green assay regent (0.095% Malachite green in 17% H2SO4, 1.5% Ammonium molybdate, 0.17% Tween 20) is added, followed by incubation with shaking for 15 minutes at 22° C. The absorbance of the assay plate is read at 630 nm using a Hidex Sense Multilabel plate reader. The IC50 value is determined by fitting a dose response curve to the data points using nonlinear regression analysis and the equation Y=Bottom+(Top−Bottom)/(1+10^((Log IC50−X)*HillSlope)), where Y is the read absorbance at 630 nm and X is log [compound].
The compounds to be tested are nano-dispensed, in 11 concentrations, directly in assay plates, with a final DMSO concentration <1%. The protocol and the reaction mixture are the same as for the 96-well assay, with a total reaction volume of 50 μl/well to which 10 μl of Malachite green reagent is added. All additions to the assay plates are made with multidrop.

Compound	IC50 [nM]
Cc1c(Cl)cccc1-c1cc(NCCn2c([N+](=O)[O-])cnc2C)nc(N)n1 [Example 100, 6-(3-chloro-2-methyl-phenyl)-N4-[2-(2-methyl-5-nitro-imidazol-1-yl)ethyl]pyrimidine-2,4-diamine]	< 200
Nc1nc(NCCc2ccc(S(N)(=O)=O)cc2)cc(-c2csc3ccccc23)n1 [Example 102, 4-[2-[[2-amino-6-(benzothiophen-3-yl)pyrimidin-4-yl]amino]ethyl]benzenesulfonamide]	< 200
Cc1c(Cl)cccc1-c1cc(NCCc2ccc(C(=N)N)cc2)nc(N)n1 [Example 125, 4-[2-[[2-amino-6-(3-chloro-2-methyl-phenyl)pyrimidin-4-yl]amino]ethyl]benzamidine]	< 200
CC(C)(C)OC(=O)N1CC=C(c2cc(NCCc3ccc(S(C)(=O)=O)cc3)nc(N)n2)CC1 [Example 129, tert-butyl 4-(2-amino-6-{[2-(4-methanesulfonylphenyl)ethyl]amino}pyrimidin-4-yl)-1,2,3,6-tetrahydropyridine-1-carboxylate]	< 200
Cc1ccc(S(=O)(=O)N2CC=C(c3cc(NCCc4ccc(S(C)(=O)=O)cc4)nc(N)n3)CC2)cc1 [Example 130, 4-N-[2-(4-methanesulfonylphenyl)ethyl]-6-[1-(4-methylbenzenesulfonyl)-1,2,3,6-tetrahydropyridin-4-yl]pyrimidine-2,4-diamine]	< 200
CC(C)(C)OC(=O)N1CC=C(c2cc(NCCc3ccc(S(N)(=O)=O)cc3)nc(N)n2)CC1 [Example 131, tert-butyl 4-(2-amino-6-{[2-(4-sulfamoylphenyl)ethyl]amino}pyrimidin-4-yl)-1,2,3,6-tetrahydropyridine-1-carboxylate]	< 200
Nc1nc(NCCc2ccc(S(N)(=O)=O)cc2)cc(C2=CCCCCC2)n1 [Example 132, 4-(2-{[2-amino-6-(cyclohept-1-en-1-yl)pyrimidin-4-yl]amino}ethyl)benzene-1-sulfonamide]	< 200
Nc1nc(NCCc2ccc(S(N)(=O)=O)cc2)cc(C2CCCCCC2)n1 [Example 134, 4-{2-[(2-amino-6-cycloheptylpyrimidin-4-yl)amino]ethyl}benzene-1-sulfonamide]	< 200
CC(=O)N1CC=C(c2cc(NCCc3ccc(S(N)(=O)=O)cc3)nc(N)n2)CC1 [Example 135, 4-(2-{[6-(1-acetyl-1,2,3,6-tetrahydropyridin-4-yl)-2-aminopyrimidin-4-yl]amino}ethyl)benzene-1-sulfonamide]	< 200
CC(C)C(=O)N1CC=C(c2cc(NCCc3ccc(S(N)(=O)=O)cc3)nc(N)n2)CC1 [Example 136, 4-[2-({2-amino-6-[1-(2-methylpropanoyl)-1,2,3,6-tetrahydropyridin-4-yl]pyrimidin-4-yl}amino)ethyl]benzene-1-sulfonamide]	< 200
CS(=O)(=O)N1CC=C(c2cc(NCCc3ccc(S(N)(=O)=O)cc3)nc(N)n2)CC1 [Example 137, 4-(2-{[2-amino-6-(1-methanesulfonyl-1,2,3,6-tetrahydropyridin-4-yl)pyrimidin-4-yl]amino}ethyl)benzene-1-sulfonamide]	< 200
Nc1nc(NCCc2ccc(S(N)(=O)=O)cc2)cc(C2=CCN(C(=O)c3ccno3)CC2)n1 [Example 138, 4-[2-({2-amino-6-[1-(1,2-oxazole-5-carbonyl)-1,2,3,6-tetrahydropyridin-4-yl]pyrimidin-4-yl}amino)ethyl]benzene-1-sulfonamide]	< 200
Nc1nc(NCCc2ccc(S(N)(=O)=O)cc2)cc(C2=CCN(C(=O)C3CCCC3)CC2)n1 [Example 139, 4-(2-{[2-amino-6-(1-cyclopentanecarbonyl-1,2,3,6-tetrahydropyridin-4-yl)pyrimidin-4-yl]amino}ethyl)benzene-1-sulfonamide]	< 200
Nc1nc(NCCc2ccc(S(N)(=O)=O)cc2)cc(C2=CCN(C(=O)CC3CCCC3)CC2)n1 [Example 140, 4-[2-({2-amino-6-[1-(2-cyclopentylacetyl)-1,2,3,6-tetrahydropyridin-4-yl]pyrimidin-4-yl}amino)ethyl]benzene-1-sulfonamide]	< 200
Cc1ccc(C(=O)N2CC=C(c3cc(NCCc4ccc(S(N)(=O)=O)cc4)nc(N)n3)CC2)cc1 [Example 141, 4-[2-({2-amino-6-[1-(4-methylbenzoyl)-1,2,3,6-tetrahydropyridin-4-yl]pyrimidin-4-yl}amino)ethyl]benzene-1-sulfonamide]	< 200
Cc1c(Cl)cccc1-c1cc(NCCNc2ccc(C(N)=O)cn2)nc(N)n1 [Example 147]	< 200
Cc1c(Cl)cccc1-c1cc(NCCNc2ccc(NC(=O)NC(C)(C)C)cn2)nc(N)n1 [Example 156, 1-[6-[2-[[2-amino-6-(3-chloro-2-methyl-phenyl)pyrimidin-4-yl]amino]ethylamino]-3-pyridyl]-3-tert-butyl-urea]	< 200
Cc1c(Cl)cccc1-c1cc(NCCNc2ccc(NC(=O)OC(C)(C)C)cn2)nc(N)n1 [Example 157, tert-butyl N-[6-[2-[[2-amino-6-(3-chloro-2-methyl-phenyl)pyrimidin-4-yl]amino]ethylamino]-3-pyridyl]carbamate]	< 200
Cc1c(Cl)cccc1-c1cc(NCCNc2nc(N)nc(N)n2)nc(N)n1 [Example 158, N2-[2-[[2-amino-6-(3-chloro-2-methyl-phenyl)pyrimidin-4-yl]amino]ethyl]-1,3,5-triazine-2,4,6-triamine]	< 200
Cc1c(Cl)cccc1-c1cc(NCCc2ccc(C(N)=O)cc2F)nc(N)n1 [Example 162, 4-[2-[[2-amino-6-(3-chloro-2-methyl-phenyl)pyrimidin-4-yl]amino]ethyl]-3-fluoro-benzamide]	< 200
Cc1c(Cl)cccc1-c1cc(NCCSCc2ccc(CN(C)C)o2)nc(N)n1 [Example 175, 6-(3-chloro-2-methyl-phenyl)-N4-[2-[[5-[(dimethylamino)methyl]-2-furyl]methylsulfanyl]ethyl]pyrimidine-2,4-diamine]	< 200
Cc1c(Cl)cccc1-c1cc(NCCc2cccc(NC(=N)N)c2)nc(N)n1 [Example 179, 1-[3-[2-[[2-amino-6-(3-chloro-2-methyl-phenyl)pyrimidin-4-yl]amino]ethyl]phenyl]guanidine]	< 200
Cc1c(Cl)cccc1-c1cc(NCC#CCSc2cccc(C(=O)O)c2)nc(N)n1 [Example 193]	< 200
Cc1c(-c2cc(NCCc3ccc(S(N)(=O)=O)cc3)nc(N)n2)cccc1C(F)(F)F [Example 197, 4-[2-({2-amino-6-[2-methyl-3-(trifluoromethyl)phenyl]pyrimidin-4-yl}amino)ethyl]benzene-1-sulfonamide]	< 200
Cc1c(Cl)cccc1-c1cc(NCCOc2ccc(C(F)(F)F)cn2)nc(N)n1 [Example 199, 6-(3-chloro-2-methylphenyl)-N4-(2-{[5-(trifluoromethyl)pyridin-2-yl]oxy}ethyl)pyrimidine-2,4-diamine]	< 200
Cc1c(Cl)cccc1-c1cc(NCCOc2ccc(-c3nn[nH]n3)cc2)nc(N)n1 [Example 202, 6-(3-chloro-2-methylphenyl)-N4-{2-[4-(2H-1,2,3,4-tetrazol-5-yl)phenoxy]ethyl}pyrimidine-2,4-diamine]	< 200
Cc1c(Cl)cccc1-c1cc(NCC(O)c2ccc(S(C)(=O)=O)cc2)nc(N)n1 (stereo not drawn) [Example 215, 2-(2-amino-6-(3-chloro-2-methylphenyl)pyrimidin-4-ylamino)-1-(4-(methylsulfonyl)phenyl)ethanol]	< 200
Cc1c(Cl)cccc1-c1cc(NCC(O)c2ccc(S(N)(=O)=O)cc2)nc(N)n1 (stereo not drawn) [Example 216, 4-(2-(2-Amino-6-(3-chloro-2-methylphenyl)pyrimidin-4-ylamino)-1-hydroxyethyl)benzenesulfonamide]	< 200
CS(=O)(=O)c1ccc(CCNc2cc(-c3cccc(Cl)c3CO)nc(N)n2)cc1 [Example 217, (2-(2-Amino-6-(4-(methylsulfonyl)phenethylamino)pyrimidin-4-yl)-6-chlorophenyl)methanol]	< 200
Nc1nc(NCCc2ccc(S(N)(=O)=O)cc2)cc(-c2cccc(Cl)c2CO)n1 [Example 218, 4-(2-(2-Amino-6-(3-chloro-2-(hydroxymethyl)phenyl)pyrimidin-4-ylamino)ethyl)benzenesulfonamide]	< 200

— patent US10179790B2 (THOMAS HELLEDAYS STIFTELSE FOR MEDICINSK FORSKNING, priority 2014, dated 2019)
